This is an account of results in PubChem BioAssay AID2305 (GlaxoSmithKline (GSK), 2010).

pIC50: −log10 of the molar value.

The test system of the test is P. falciparum 3D7 growth, pLDH absorbance. The test is described as follows: P. falciparum 3D7 growth inhibition, dose response, strain 3D7 (AID 2305).

Usually pIC50 stands for −log10 of the IC50, conventionally taken in molar units. The molecule `CC(C)c1sc(N2CCN(C)CC2)nc1C(=O)Nc1cccc2c1CCCC2` showed a pIC50 of 5.89.

The molecule `CC(C)Cn1ccc2c3c(N)nc(N)nc3ccc21` gave a pIC50 of 7.52. This pIC50 is 1.63 log units higher than that of the molecule before. `O=C(Nc1ccccc1)N(Cc1ccccc1-c1cccc(CNC2CCCC2)c1)C1CCN(Cc2ccccc2)CC1`: the negative-log IC50 (pIC50) was 6.77. `N#Cc1ccc(CN2CCC(Oc3ccc(NC(=O)c4ccsc4)cc3Cl)C2)cc1` (configuration not stated): the pIC50 is 6.17.

On to `NC(=O)C1CCN(Cc2cccc(-c3cccc(-c4nc5ccc(C(F)(F)F)cc5[nH]4)c3)c2)CC1`, for which the pIC50 was 6.19. To `CCCCCCN1CCCN(Cc2ccc(C(=O)Nc3ccc(CCC)cc3)cc2)CC1` belongs 6.18; to `CCCC(=O)NC(NC(=S)Nc1ccc([N+](=O)[O-])cc1)C(Cl)(Cl)Cl` (configuration not stated), 5.99. To `O=C(Nc1ccccc1)Nc1cccc(-c2ccc(-c3nc4ccc(C(F)(F)F)cc4[nH]3)cc2)c1` belongs 6.64; to `Cc1nc(N)nc(N)c1-c1ccc(Cl)cc1`, 6.11. The molecule `COc1cc(NC(=O)/C=C/c2ccccc2OC(F)(F)F)cc(OCCN2CCN(CCN3CCOCC3)CC2)c1` gave a pIC50 of 6.80. In the case of `O=C(NCCCCN1CC[C@@H]2c3cccc(O)c3CC[C@H]21)c1ccc(-c2ccccc2)cc1`, the negative logarithm of the IC50 (pIC50) is 5.86.

`CN(C)CCNCc1ccc(-c2ccc(-c3nc4ccccc4[nH]3)s2)cc1` showed a negative-log IC50 (pIC50) of 6.24.

For the molecule `CCN(CCNC(=O)C1CCN(c2cc(-c3cccc(C)c3)ncn2)CC1)Cc1ccccc1`, the pIC50 is 6.77. Consider `CCn1c(Cc2ccccc2)nnc1SCC(=O)N1c2ccccc2Sc2ccccc21`, for which the negative logarithm of the IC50 (pIC50) is 6.23. For `Clc1cc(Cl)c2cc(CN[C@H]3CCC[C@@H]3CNc3nc4ccccc4[nH]3)[nH]c2c1`, the negative logarithm of the IC50 (pIC50) was 6.57. `Cc1cc(NCc2ccc(F)cc2)nc2cc(O)ccc12` showed a negative-log IC50 (pIC50) of 6.12. To `Oc1ccc2c(c1NCC1CCCCC1)CCCC2` belongs 6.29; to `O=C(Nc1cc(Cl)ccc1O)c1cnn2c(C(F)(F)F)cc(-c3cccs3)nc12`, 6.07. Turning to `CC(CN(C)C)C(=O)Nc1cccc(-c2cccc(-c3nc4ccc(F)cc4[nH]3)c2)c1` (configuration not stated), the negative-log IC50 (pIC50) is 6.08. The same measure for `O=S(=O)(c1ccc(OCc2ccc(Cl)cc2)cc1)c1cc2c(cc1OCc1ccccc1)CCN(C1CCC1)CC2`: 5.99; for `COCCNCc1cccc(-c2ccc3c(Nc4ccc(Oc5cccnc5)cc4)ccnc3c2)c1`: 6.74. `Clc1ccc(CNCCCCCCNCc2ccc(Cl)cc2)cc1` showed a pIC50 of 6.07.

`O=C(c1cccs1)N1CCN(c2ccc([N+](=O)[O-])c(NC3CC3)c2)CC1` had a negative-log IC50 (pIC50) of 6.11. The same measure for `Cc1[nH]c(C)c(-c2ccc(Oc3ccc(Cl)cc3)cc2)c(=O)c1Cl`: 6.10; for `O=C(Cc1cnc[nH]1)Nc1cccc(-c2ccc(-c3nc4ccccc4[nH]3)cc2)c1`: 6.12; for `Cc1cc2cc(/C=C/C(=O)NC3CCC(CCN4CCc5ccc(C#N)cc5CC4)CC3)ccc2[nH]1` (configuration not stated): 6.06. To `COCCOc1ccc(Nc2nccc(-c3c(-c4cccc(NC(=O)c5c(F)cccc5F)c4)nn4ccccc34)n2)cc1F` belongs 6.02; to `COC(=O)c1ccccc1COc1ccc(CC2(NC(=O)[C@H](Nc3ccc(C#N)c4ccccc34)C(C)(C)C)CCCC2)cc1`, 6.07. To `FC(F)(F)c1cccc(CNCC2CCN(Cc3ccc4c(c3)OCO4)CC2)c1` belongs 6.14; to `CCCCCC(C)N=C(Nc1ccc(C#N)cc1O)Nc1ccccc1Br` (configuration not stated), 6.12. The molecule `FC(F)(F)c1cccc(Nc2nc(-c3ccccc3)nc3ncccc23)c1` gave a pIC50 of 6.10. This pIC50 and that of the molecule before are within 0.2 log units of each other. Molecule `COc1ccc(C2CCN(CCCNC(=O)c3ccc(NC(=O)c4ccc(Cl)cc4)cc3)CC2)c(OC)c1` gave a negative logarithm of the IC50 (pIC50) of 6.12. `COc1ccc(-c2nonc2NC(=O)c2cccc(C)c2)cc1OC`: the negative-log IC50 (pIC50) is 6.09. This pIC50 and that of the molecule before are within 0.2 log units of each other. The molecule `CC(C)(Oc1c(C2CCN(CCCCNC(=O)c3ccc(-c4ccc(Cl)cc4)cc3)CC2)ccc2c1CCCC2)C(N)=O` showed a negative logarithm of the IC50 (pIC50) of 5.96. To `CCCCCC(=O)N1CCOC(CCN2CCc3c(c4ccccc4n3C)C2)(c2ccc(Cl)c(Cl)c2)C1` (configuration not stated) belongs 6.01.

In the case of `Cc1cc(N[C@@H](Cc2ccccc2)C(=O)NCc2cccc(F)c2)nc(Nc2ccccc2)n1`, the pIC50 was 6.03. This pIC50 and that of the molecule before are within 0.2 log units of each other. In turn, `COc1ccc(C)c(Nc2ccnc(Nc3ccc(-c4cnc[nH]4)cc3)n2)c1` gave a negative-log IC50 (pIC50) of 5.86. To `COc1ccccc1C1CC(c2ccc(C)cc2)=NN1C(=O)c1ccccc1` (configuration not stated) belongs 6.05; to `Cc1ccc2c(NN=Cc3ccc(N(C)C)cc3)cc(C)nc2c1`, 6.06; to `COc1cc2nccc(Nc3ccc(OCc4ccccc4)cc3)c2cc1OC`, 6.70.

In turn, `O=[N+]([O-])c1cccc(NC(=S)N2CCCN(Cc3ccc(C(F)(F)F)cc3)CC2)c1` had a pIC50 of 5.92. This pIC50 lies 0.78 log units lower than the previous one. To `CN(C)CCOc1cc(O)c2c(c1)OC(C)(C)C=C2c1cccs1` belongs 6.54; to `COc1cccc(-c2cc(C(F)(F)F)n3ncc(C(=O)Nc4cc(Cl)ccc4O)c3n2)c1`, 6.70; to `CS(=O)(=O)c1ccc(CNCc2cccc(-c3ccc(-c4nc5ccc(C(F)(F)F)cc5[nH]4)cc3)c2)cc1`, 6.29. `COc1cc(Nc2nccc(-c3c(-c4cccc(NC(=O)c5c(F)cccc5F)c4)nn4ccccc34)n2)cc(OC)c1OC` showed a pIC50 of 7.10. As to `COc1ccc2nccc(N3CCN(CCNCc4ccc5c(n4)NC(=O)CO5)CC3)c2c1`, the negative-log IC50 (pIC50) is 5.94. Against the preceding molecule, the pIC50 is 1.16 log units lower.

In turn, `Nc1ccc2nc(C=Cc3ccccc3)[nH]c2c1` showed a pIC50 of 6.12. To `Cc1ccccc1NC(=S)NC1CCN(CCCCCNC(=O)/C=C/c2ccc(Cl)c(Cl)c2)CC1` belongs 6.10; to `COc1ccc(CN2CCCN(Cc3cccc(NC(=O)c4ccc(Cl)c(Cl)c4)c3)CC2)cc1`, 6.01.

`Oc1ccc(C2CNCCc3c2cc(O)c(OCc2ccccc2)c3Cl)cc1` (configuration not stated): the pIC50 is 6.14. Regarding `CCOC(=O)c1[nH]c(-c2cc(Cl)nc(Cl)c2)nc1NC(=S)NCCCN1CCOCC1`, the pIC50 is 6.03. Turning to `C/C=C1\CN2CC[C@H]1C[C@@H]2[C@@H](O)c1ccnc2ccc(O)cc12`, the pIC50 was 6.60. Consider `COc1ccc(CN2CCCC(N3CC4(OC3=O)c3ccccc3-c3ccccc34)C2)c(O)c1` (configuration not stated), for which the pIC50 is 6.06. The same measure for `Cc1ccccc1C1CCN(C2CCC(NC(=O)c3cc(-c4ccc(Cl)cc4)cs3)CC2)CC1` (configuration not stated): 6.80; for `O=C(CCC1CCCC1)N(Cc1ccc(-c2ccc(CNCCc3ccccn3)cc2)cc1)CC1CCCCN1` (configuration not stated): 5.94; for `Oc1ccc(Cl)cc1CN1CCC(CCOC(c2ccccc2)c2ccccc2)CC1`: 6.19. The same measure for `FC(F)(F)c1ccc2nc(-c3cccc(-c4cccc(CNCCN5CCNCC5)c4)c3)[nH]c2c1`: 6.03. To `CCC(C)(C)c1ccc(OCC(O)CN2CCCCC2)c(C(C)(C)CC)c1` (configuration not stated) belongs 5.89. `CCOc1c(CNCCCNc2nc3ccccc3[nH]2)cc(Br)cc1OC` had a pIC50 of 6.25. The same measure for `COC(=O)C(NC(=O)NC1CCN(c2ccnc(Nc3ccc(F)cc3)n2)C1)c1ccccc1` (configuration not stated): 5.98; for `Cc1cc(C)n2nc(C(=O)Nc3cc(C(F)(F)F)ccc3N3CCOCC3)nc2n1`: 6.92; for `CC(C)C[C@@H](C(=O)Nc1ccc(Cc2ccc(NC(=O)[C@H](CC(C)C)N(C)C(=O)OC(C)(C)C)cc2)cc1)N(C)C(=O)OC(C)(C)C`: 6.09.

With `COc1ccc2c(c1CNCCCCCCNCc1c(OC)ccc3c1CCCC3)CCCC2`, the negative logarithm of the IC50 (pIC50) is 6.04. To `CNCCNCc1cccc(-c2cccc(-c3nc4c(C)cccc4[nH]3)c2)c1` belongs 6.11.

`CC(C)CCCC(C)NC[C@@H](O)[C@H](Cc1ccccc1)NC(=O)c1cc(N2CCCC2=O)cc(N(c2ccccc2)S(C)(=O)=O)c1` (some centres not stated) gave a pIC50 of 7.22.

`COc1cccc(OC)c1CN1CCC(N(C)CCCCCCCCCN2CCC(OC(=O)Nc3ccccc3-c3ccccc3)CC2)CC1` had a pIC50 of 6.49. To `CC(=O)Oc1c(Br)c(C)nc(C)c1-c1ccc(Oc2ccc(OC(F)(F)F)cc2)cc1` belongs 6.89; to `CCc1cccc(-n2c(=O)c3cccnc3n2CC(=O)NCc2ccccc2Cl)c1`, 6.13; to `CC(=O)N(C)c1ccc(C(=O)Nc2cccc(-c3cccc(-c4nc5ccc(C(F)(F)F)cc5[nH]4)c3)c2)cc1`, 6.51. The molecule `CC(CN(C)C)C(=O)Nc1ccc(-c2ccc(-c3nc4ccc(C(F)(F)F)cc4[nH]3)cc2)cc1` (configuration not stated) showed a negative logarithm of the IC50 (pIC50) of 6.12.

Molecule `Oc1ccc(Cl)cc1CN1CCC2(CCCN(CC3CCC3)C2)C1` (configuration not stated) gave a pIC50 of 6.43.

In the case of `Cc1cccc(Nc2nccc(Nc3cccc(C(=O)NCCN4CCOCC4)c3)n2)c1`, the negative-log IC50 (pIC50) was 5.85. This pIC50 is 0.58 log units lower than that of the molecule before. As for `O=C(Nc1ccccc1)Nc1cccc(-c2cc(CNCCc3ccccc3)sc2-c2ccncc2)c1`, the pIC50 is 6.22. This pIC50 lies 0.37 log units higher than the previous one. For `Fc1cccc(COc2ccc(Nc3ncnc4sc(C#CCNC5CCC5)cc34)cc2Cl)c1`, the negative-log IC50 (pIC50) is 6.06. In turn, `CCOC(=O)c1c[nH]c2c(sc3cc(OC)ccc32)c1=O` gave a pIC50 of 6.41.

Molecule `Cc1cc(=O)c(-c2ccc(Oc3cccc(Cl)c3)cc2)c(C)[nH]1` showed a pIC50 of 6.22.

`COc1ccccc1N1CCN(Cc2c(NC(C)=O)sc(C)c2C)CC1` showed a negative logarithm of the IC50 (pIC50) of 6.37.

Molecule `CCOc1ccc(-c2nonc2NC(=O)c2cccc(Cl)c2)cc1OCC` gave a negative-log IC50 (pIC50) of 6.82. Against the preceding molecule, the pIC50 is 0.45 log units higher. Molecule `CCCCC(=O)N(CCOC)Cc1ccc(-c2ccc(CNCCC)cn2)cc1` gave a pIC50 of 6.14.

`COc1ccc(NC(=O)[C@H](CC(C)C)Nc2cc(C)nc(NCc3ccccc3C)n2)cc1` had a negative-log IC50 (pIC50) of 6.05.

`COc1cc2nc(N3CCC(CNC(=O)c4ccc(-c5ccc(C(=O)N(C)C)cc5)cc4)CC3)nc(N)c2cc1OC` showed a negative-log IC50 (pIC50) of 6.12. The molecule `CC(C)c1ccc(CN2CCC(NC(=O)c3ccc(-c4ccccc4F)s3)CC2)cc1` showed a pIC50 of 5.81. `CC(C)(C)c1cc(Cn2ccnc2)cc(C(C)(C)C)c1O` had a pIC50 of 5.98.

As to `O=c1ccc2ccc(F)c3c2n1CC3CN1CCC(NCc2ccc(-c3cccc(Cl)c3)nc2)CC1` (configuration not stated), the pIC50 is 6.00. `N=C(N)c1ccc(-c2cc(-c3cccc(C(=N)N)c3)on2)cc1` had a pIC50 of 8.00. For the molecule `C[C@@H](Oc1cc(-n2cnc3cc(SCCN4CCN(C)CC4)ccc32)sc1C(N)=O)c1ccccc1Cl`, the pIC50 is 6.29. `CCOC(=O)c1ccc(NC(=O)NNC(=O)c2ccc(CCN3CCC(c4nc(COCC(F)(F)F)c(-c5ccc(F)cc5)o4)CC3)cc2)cc1` showed a pIC50 of 6.24. The pIC50 values of the last two molecules are within 0.2 log units of each other.
